The results in this text go back to patent US20140308317A1, “Polymeric Compounds And Methods Of Making And Using The Same” (CELLCEUTIX CORPORATION, priority 2012, published 2014).

In data set [1] the test system is Klebsiella pneumoniae ATCC 13883. Nature of the data set: Minimum Inhibitory Concentration (MIC), modified microbroth dilution. The class given is cell-based. The note with it: K. pneumoniae (13883), overnight incubation (18 hours); for MIC50: Klebsiella pneumoniae, ATCC13883, read-out: MIC50 K. Pnuemnoiae. A general note: In broth dilution the organism is exposed to a series of concentrations in liquid medium.

The test system of data set [2] is Staphylococcus aureus ATCC 27660. The description is as above. The class given is cell-based. The note with it: S. aureus (27660), overnight incubation (18 hours); for MIC50: Staphylococcus aureus, ATCC27660, read-out: MIC50 S. aureus.
For data set [3], the system named is E. Coli ATCC 25922. Described as above. The format is cell-based. The note with it: E. coli (25922), overnight incubation (18 hours); for MIC50: Escherichia coli, ATCC25922, read-out: MIC50 E. coli.
The test system of data set [4] is Pseudomonas aeruginosa ATCC 10145. Described as above. The class given is cell-based. As to conditions: P. aeruginosa (10145), overnight incubation (18 hours); for MIC50: Pseudomonas aeruginosa, ATCC10145, read-out: MIC50 P. Aeruginosa.
Data set [5] relates to Enterococcus faecalis ATCC 29212. The data set is described as above. The format is cell-based. As to conditions: E. faecalis (29212), overnight incubation (18 hours); for MIC50: Enterococcus faecalis, ATCC29212, read-out: MIC50 E. faecalis.
Data set [6] can be described thus: Cytotoxicity colorimetric (tetrazolium) assay. The format is cell-based, human. The note with it: human, HepG2 cells, one hour with compound in serum-free media. The procedure:
(§1) Cytotoxicity of the compounds was evaluated in a colorimetric assay using a transformed human liver cell line (HepG2, HB-8065) and an embryonic mouse cell line (NIH/3T3 cells, CRL-1658). This assay measures the bioreduction of a novel tetrazolium compound to a soluble formazan product by viable cells. HepG2 cells were seeded in 96 well plates at 2×10^4 cells/well in MEM medium with 10% fetal bovine serum (FBS) 24 hours prior to use. NIH/3T3 cells were seeded in 96 well plates at 2×10^4 cells/well in DMEM medium with 10% bovine calf serum (BCS) 24 hours prior to use. Cell monolayers were rinsed in serum-free media and incubated for one hour with compounds in serum-free media. After incubation, the media is replaced with serum supplemented media and live cells were measured using the Cell Titer 96 Aqueous […] Assay kit (Promega, Madison, Wis.). EC50 values were determined using a four parameter logistic equation: Y=Bottom+(Top-Bottom)/(1+10̂((LogEC50−X)*HillSlope)).
(§2) Actual results from a representative cytotoxicity assay are shown below in Table 2. Data is expressed as EC50 in μg/mL.

A short description of data set [7]: Cytotoxicity colorimetric (tetrazolium) assay. The format is cell-based, mouse. The note with it: mouse, NIH/3T3 cells, one hour with compound in serum-free media. The procedure:
as §1, §2

In brackets after ≈: the same amount, converted by molar mass.

One may read the MIC50 as the lowest concentration that inhibits either 50% of growth or 50% of the strains tested, depending on the study. Broadly, the EC50 is the concentration giving half of the maximal effect.

Consider `N=C(N)NC/C=C/c1cc(/C=C/CNC(=N)N)cc(-c2cccc(-c3cc(/C=C/CNC(=N)N)cc(/C=C/CNC(=N)N)c3)c2)c1` [Compound 118], for which the MIC50 in data set [1] was determined as 12.5 µg/mL (≈ 20.2 µM); in data set [2], 0.78 µg/mL (≈ 1.26 µM); in data set [3], 0.78 µg/mL (≈ 1.26 µM); in data set [4], 12.5 µg/mL (≈ 20.2 µM); in data set [5], 12.5 µg/mL (≈ 20.2 µM).
Regarding `Cl.Cl.NCCCc1cccc(-c2cccc(-c3cccc(CCCN)c3)c2)c1` [Compound 110], the “MIC50 K. Pnuemnoiae” value in data set [1] was found to be 100 µg/mL. The “MIC50 S. aureus” value in data set [2] was determined as 25 µg/mL. The “MIC50 E. coli” value in data set [3] was determined as 25 µg/mL. For the same compound, in data set [4], the “MIC50 P. Aeruginosa” value was determined as 100 µg/mL. In addition, the “MIC50 E. faecalis” value in data set [5] was determined as 100 µg/mL.
As for `NCCNc1ccc(-c2ccc3sc4ccc(-c5ccc(NCCN)cc5)cc4c3c2)cc1` [Compound 173], the “MIC50 K. Pnuemnoiae” value in data set [1] came out at 3.13 µg/mL (≈ 6.92 µM). The “MIC50 S. aureus” value in data set [2] was 0.195 µg/mL (≈ 0.431 µM). Moreover, the “MIC50 E. coli” value in data set [3] is 6.25 µg/mL (≈ 13.8 µM). In addition, the “MIC50 P. Aeruginosa” value in data set [4] is above 50 µg/mL. Moreover, the “MIC50 E. faecalis” value in data set [5] was determined as 1.56 µg/mL (≈ 3.45 µM).
On to `N=C(N)NCCCOc1cc(-c2ccc3sc4ccc(-c5cc(OCCCNC(=N)N)c(OCCCNC(=N)N)c(OCCCNC(=N)N)c5)cc4c3c2)cc(OCCCNC(=N)N)c1OCCCNC(=N)N` [Compound 186], for which the “MIC50 K. Pnuemnoiae” value in data set [1] was 6.25 µg/mL (≈ 6.08 µM). In addition, the “MIC50 S. aureus” value in data set [2] is 0.78 µg/mL (≈ 0.759 µM). Further, the “MIC50 E. coli” value in data set [3] is 12.5 µg/mL (≈ 12.2 µM). Further, the “MIC50 P. Aeruginosa” value in data set [4] was found to be 12.5 µg/mL (≈ 12.2 µM). In addition, the “MIC50 E. faecalis” value in data set [5] was 3.13 µg/mL (≈ 3.05 µM).
`NCCCn1c2cc(-c3cccc(CN(CCN)CCN)c3)ccc2c2ccc(-c3cccc(CN(CCN)CCN)c3)cc21` [Compound 178]: the MIC50 in data set [1] was determined as 12.5 µg/mL (≈ 20.6 µM); in data set [2], 0.39 µg/mL (≈ 0.643 µM); in data set [3], 3.13 µg/mL (≈ 5.16 µM); in data set [4], 12.5 µg/mL (≈ 20.6 µM); in data set [5], 12.5 µg/mL (≈ 20.6 µM). Also, in data set [6] (HepG2 cells (HB-8065)), the 50% effective concentration (EC50) at 1 h turned out to be 228 µg/mL (≈ 376 µM).
As for `NCC(CN)c1cc(Br)cc(C#Cc2cccc(C#Cc3cc(Br)cc(C(CN)CN)c3)c2)c1` [Compound 190], the MIC50 was 3.13 µg/mL (≈ 5.39 µM) in data set [1]; 0.78 µg/mL (≈ 1.34 µM) in data set [2]; 1.56 µg/mL (≈ 2.69 µM) in data set [3]; 12.5 µg/mL (≈ 21.5 µM) in data set [4]; 0.39 µg/mL (≈ 0.672 µM) in data set [5].
Consider `N=C(N)NCCCOc1cc(OCCCNC(=N)N)cc(-c2ccc3sc4ccc(-c5cc(OCCCN)c(OCCCN)c(OCCCN)c5)cc4c3c2)c1` [Compound 185], for which the “MIC50 K. Pnuemnoiae” value in data set [1] came to 12.5 µg/mL (≈ 15.9 µM). In addition, the “MIC50 S. aureus” value in data set [2] was 0.78 µg/mL (≈ 0.992 µM). For the same compound, the “MIC50 E. coli” value in data set [3] was 6.25 µg/mL (≈ 7.95 µM). In data set [4], the “MIC50 P. Aeruginosa” value was 25 µg/mL (≈ 31.8 µM). The “MIC50 E. faecalis” value in data set [5] worked out at 1.56 µg/mL (≈ 1.98 µM).
On to `N=C(N)NCCc1cc(CCNC(=N)N)cc(-c2ccc(-c3cccc(-c4ccc(-c5cc(CCNC(=N)N)cc(CCNC(=N)N)c5)s4)c3)s2)c1` [Compound 139], for which the MIC50 in data set [1] stood at 3.13 µg/mL (≈ 4.26 µM); in data set [2], 0.39 µg/mL (≈ 0.531 µM); in data set [3] it was 6.25 µg/mL (≈ 8.5 µM); in data set [4], 12.5 µg/mL (≈ 17 µM); in data set [5], 0.78 µg/mL (≈ 1.06 µM).
As for `CCn1c2ccc(-c3cccc(N)c3)cc2c2cc(-c3cccc(N)c3)ccc21` [Compound 176], the “MIC50 K. Pnuemnoiae” value in data set [1] was above 50 µg/mL. For the same compound, in data set [2], the “MIC50 S. aureus” value was 0.39 µg/mL (≈ 1.03 µM). The “MIC50 E. coli” value in data set [3] turned out to be 12.5 µg/mL (≈ 33.1 µM). The “MIC50 P. Aeruginosa” value in data set [4] amounted to 12.5 µg/mL (≈ 33.1 µM). For the same compound, the “MIC50 E. faecalis” value in data set [5] is above 50 µg/mL.
As for `NCCCn1cc(-c2cccc(-c3cn(CCCN)nn3)c2)nn1` [Compound 108], in data set [1], the “MIC50 K. Pnuemnoiae” value is above 100 µg/mL. For the same compound, in data set [2], the “MIC50 S. aureus” value is above 100 µg/mL. The “MIC50 E. coli” value in data set [3] is above 100 µg/mL. Also, in data set [4], the “MIC50 P. Aeruginosa” value was above 100 µg/mL. Also, the “MIC50 E. faecalis” value in data set [5] is above 100 µg/mL.
Consider `N=C(N)Nc1ccc(-c2nnc(-c3ccc(NC(=N)N)cc3)o2)cc1` [Compound 127], for which the MIC50 is above 100 µg/mL in data set [1]; 50 µg/mL (≈ 149 µM) in data set [2]; above 100 µg/mL in data set [3]; above 100 µg/mL in data set [4]; above 100 µg/mL in data set [5].
Take `N=C(N)NCCCOc1cc(OCCCNC(=N)N)c(-c2ccc(F)c(F)c2)cc1-c1ccc(F)c(F)c1` [Compound 119]: in data set [7] (NIH/3T3 cells (CRL-1658)), the 50% effective concentration (EC50) at 1 h came out at 113 µg/mL (≈ 213 µM).
Consider `NCCc1cc(CCN)cc(-c2cc(F)cc(-c3cc(F)cc(-c4cc(CCN)cc(CCN)c4)c3)c2)c1` [Compound 150], for which the EC50 at 1 h in data set [6] was 486 µg/mL (≈ 944 µM); in data set [7] it was 427 µg/mL (≈ 830 µM).
